This passage reports improvement in memory, Emax and adverse side effects results from US5723468A, “6-membered ring fused imidazoles as muscarinic agents” (priority 1996, dated 1998).

The subject of series [1] is mild to moderate Alzheimer's Disease. The settings on record: cited from earlier work; for improvement in memory: patients with mild to moderate Alzheimer's Disease.
Series [2] deals with T1, M1 acetylcholine receptors (ml receptors in CHO cells) (Homo sapiens, UniProt P11229).
T1 sequence (P11229 1-460): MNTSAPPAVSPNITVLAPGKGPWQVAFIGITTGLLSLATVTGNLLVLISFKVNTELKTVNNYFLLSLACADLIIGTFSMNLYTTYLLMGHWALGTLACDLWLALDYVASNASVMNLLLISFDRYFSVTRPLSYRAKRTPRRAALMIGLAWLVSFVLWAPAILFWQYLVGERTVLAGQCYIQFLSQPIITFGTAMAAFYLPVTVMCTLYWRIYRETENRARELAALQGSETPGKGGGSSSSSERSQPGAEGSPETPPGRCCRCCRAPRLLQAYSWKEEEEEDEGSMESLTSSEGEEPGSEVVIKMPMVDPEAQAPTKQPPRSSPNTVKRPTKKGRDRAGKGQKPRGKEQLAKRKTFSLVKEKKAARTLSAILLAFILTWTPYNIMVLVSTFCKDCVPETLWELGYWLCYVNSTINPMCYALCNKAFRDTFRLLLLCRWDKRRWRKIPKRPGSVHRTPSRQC
Nature of the series: stimulation of phosphoinositide (PI) hydrolysis in transfected CHO cells. Type of series: cell-based. The settings on record: 1 h, read-out: % PI Hydrolysis ml receptors in CHO cells 30 × Ki (μM), carb = 100%.

The structures appear in SMILES notation.

`COC(=O)C1=CCCN(C)C1` [arecoline]: the improvement in memory result in series [1] is recorded as “demonstrated memory improvement in patients with mild to moderate Alzheimer's Disease”. As to `Cn1cnc2c(O[C@@H]3CN4CC[C@H]3C4)nccc21` (single isomer, unassigned) [Example 3, (-)-endo-4-(1-Aza-bicyclo[2.2.1]hept-3-yloxy)-1methyl-1H-imidazol[4,5-c]pyridine], in series [2], the Emax stood at 20.6%.

Regarding `c1ccc(Cn2cnc3c(OC4CN5CCC4CC5)nccc32)cc1` (stereo not shown) [Example 5, 3-(1-Benzyl-1H-imidazo[4,5-c]pyridin-4-yloxy)-1-aza-bicyclo[2,2,2]octane], the Emax in series [2] is 6.8%.

For the compound `Cn1cnc2c(O[C@@H]3CN4CC[C@H]3C4)nccc21` (relative stereo) [Example 1, endo-4-(1-Aza-bicyclo[2.2.1]hept-3-yloxy)-1-methyl-1H-imidazol[4,5-c]pyridine], in series [2], the Emax came out at 25%.

With `c1ccc(Cn2cnc3c(OC4CN5CCC4CC5)nccc32)cc1` (single isomer, unassigned; (-)) [Example 7, (-)-3-(1-Benzyl-1H-imidazol[4,5-c]pyridin-4-yloxy)-1-aza-bicyclo[2,2,2]octane], in series [2], the Emax came out at 18.4%. Consider `Nc1c2c(nc3ccccc13)CCCC2` [tacrine], for which the adverse side effects result in series [1] (especially at the higher doses where it is most effective) is recorded as “adverse side effects especially at the higher doses”. In series [1], the improvement in memory result is “improvement in memory can be shown in patients with mild to moderate Alzheimer's Disease”.
